K(Dye2) = not defined here; K(tet) = not defined here; code O = not defined here; C17 = C17 chain
Key:
[1] = cited from earlier work; for Monera et al. Hydrophobicity at pH 7: normalized, phenylalanine 100, glycine 0
[2] = cited from earlier work
MAP kinase2/Erk2 = target: T1, MAP kinase2/Erk2 (Homo sapiens, UniProt P28482); assay: Real-time kinase assay with hydrophobic molecule and myelin basic protein micelle; format: biochemical; conditions: FIG. 3C
T1 construct: purchased Upstate USA, Inc
Protocol: (§1) The compositions described herein are useful in the detection of enzymes. Real-time kinase assays for PKCβII, MAP kinase1/Erk1, and MAP kinase2/Erk2 using the hydrophobic molecule, C16OOOK(Dye 2)EEIYGEF-amide and charge-balance molecule, myelin basic protein with 0 or 100 μM ATP, are shown in FIGS. 3A-C.
(§2) A reaction solution (10 μl) was prepared containing the hydrophobic molecule C16OOOK(Dye2)EEIYGEF-amide (10 μM), and 10 μM charge-balance molecule Myelin Basic Protein (Upstate cat. no: 13-104), in 20 mM Tris buffer, pH 7.6, MgCl2 (5 mM), DTT (5 mM) and either PKCβII (0.15 ng/μl, Upstate USA, Inc.), MAP kinase1/Erk1 (1.5 ng/μl, Upstate USA, Inc.), or MAP kinase2/Erk2 (1.5 ng/μl, Upstate USA, Inc.). The solution was pipetted into wells of a 384-well plate (10 μL per well), Corning 384-well, black, non-binding surface (NBS), microwell plates. ATP (0 or 500 μM) was added to initiate the kinase reaction. Fluorescence was read in real-time every 2 minutes for 2 hours, at ambient temperature, using, Molecular Devices (Sunnyvale, Calif.) Analyst GT, with excitation and emission set at 485 and 535 nm respectively.

PKCβII [3] = target: T2, PKCβII (Homo sapiens, UniProt P05771); assay: as above; format: biochemical; conditions: FIG. 3A
T2 construct: purchased Upstate USA, Inc
T2 sequence (P05771 1-673 isoform P05771-2): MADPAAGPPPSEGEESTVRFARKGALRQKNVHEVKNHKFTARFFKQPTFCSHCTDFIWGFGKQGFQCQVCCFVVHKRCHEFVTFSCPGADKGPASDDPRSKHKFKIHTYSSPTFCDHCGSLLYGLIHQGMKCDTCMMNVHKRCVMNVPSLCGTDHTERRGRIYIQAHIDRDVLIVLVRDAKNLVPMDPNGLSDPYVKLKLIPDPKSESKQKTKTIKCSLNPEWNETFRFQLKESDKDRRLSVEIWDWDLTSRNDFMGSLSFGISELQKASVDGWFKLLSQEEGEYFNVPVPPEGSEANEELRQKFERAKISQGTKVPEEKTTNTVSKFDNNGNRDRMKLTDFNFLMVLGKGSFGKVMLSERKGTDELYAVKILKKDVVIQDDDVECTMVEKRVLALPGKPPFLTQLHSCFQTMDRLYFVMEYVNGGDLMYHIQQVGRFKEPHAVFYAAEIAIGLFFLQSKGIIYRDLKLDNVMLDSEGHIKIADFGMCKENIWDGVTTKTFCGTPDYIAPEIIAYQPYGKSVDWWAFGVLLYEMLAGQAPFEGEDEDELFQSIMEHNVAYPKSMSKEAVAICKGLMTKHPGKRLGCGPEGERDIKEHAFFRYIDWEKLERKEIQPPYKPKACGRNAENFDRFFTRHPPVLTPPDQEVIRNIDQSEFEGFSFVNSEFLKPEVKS
Protocol: as §1, §2

MAP kinase1/Erk1 = target: T3, MAP kinase1/Erk1 (Homo sapiens, UniProt P27361); assay: as above; format: biochemical; conditions: FIG. 3B
T3 construct: purchased Upstate USA, Inc
T3 sequence (P27361 whole entry): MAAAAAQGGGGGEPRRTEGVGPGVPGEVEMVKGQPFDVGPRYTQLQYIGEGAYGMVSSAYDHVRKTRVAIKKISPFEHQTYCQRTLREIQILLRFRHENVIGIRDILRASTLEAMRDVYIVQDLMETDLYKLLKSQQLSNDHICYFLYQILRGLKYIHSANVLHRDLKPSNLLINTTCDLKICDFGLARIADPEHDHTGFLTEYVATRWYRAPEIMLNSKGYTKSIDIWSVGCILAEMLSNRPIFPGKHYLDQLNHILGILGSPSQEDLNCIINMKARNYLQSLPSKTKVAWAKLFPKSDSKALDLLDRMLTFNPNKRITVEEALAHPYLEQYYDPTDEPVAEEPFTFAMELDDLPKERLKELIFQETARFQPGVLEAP
Protocol: as §1, §2

[4] = Freeze fracture electron microscopy of micelles; format: physicochemical; conditions: 25 mM Tris pH 7.6; for micelle form seen in electron micrograph: FIGS. 1A-B
Description: Micelle formation can be detected in a variety of ways, including fluorescence titration of the molecules in detergent, and dynamic laser light scattering. Additionally, direct visual evidence of micelle formation, and micelle disruption by adding a charged group, can be obtained by freeze fracturing electron microscopy. For example, FIG. 1A is an electron micrograph of micelles comprising the hydrophobic molecule, C17OOOK(tet)RQGSFRA-amide. […] “Tet” is a fluorescent moiety provided by 2′,7′,4,7-tetachloro-5-carboxy fluorescein (2′,7-dichloro-5-carboxy-4,7-dichlorofluorescein). OOO represents optional O-spacers comprising (bis)ethylene glycol group(s). […] FIG. 1B is an electron micrograph of micelles comprising a phosphorylated hydrophobic molecule, C17OOOK(tet)RQGS(p)FRA-amide. […] Thus, the addition of two negative charges to the hydrophobic molecule, results in micelle disruption and deaggregation.
For freeze fracture electron microscopy, the hydrophobic molecule, C17OOO K(tet)RQGSFRA-amide phosphorylated hydrophobic molecule C17OOOK (tet)RQGS(p)FRA-amide were each dissolved in 25 mM Tris (pH 7.6), 5 mM MgCl and 5 mM DTT. The samples were frozen in liquid nitrogen-cooled propane. […] The fracturing process was carried out in a JEOL JED-9000 freeze-etching machine and the exposed fractured planes were shadowed with Pt for thirty seconds at an angle of 25-35 C and with carbon for 35 seconds (2 kV/60-70 mA, 1×10^−5 Torr). The replicas produced were cleaned with concentrated chloroform/methanol (1:1 by volume) at least five times. The cleaned replicas were examined with a JEOL 1000CX or Philips CM 10 electron microscope.

PKCβII [5] = target: T2, PKCβII; assay: Inhibition of PKCβII in real-time micelle kinase assay; format: biochemical; conditions: FIGS. 5A-B, IC50 only in figures
Protocol: A reaction solution (10 μl) was prepared containing the hydrophobic molecule C16OOOK(Dye2)EEIYGEF-amide (10 μM), and 10 μM charge-balance molecule Myelin Basic Protein (Upstate USA, Inc. cat. no: 13-104), in 20 mM Tris buffer, pH 7.6, MgCl2 (5 mM), DTT (5 mM), 10% Lipid Activator (Upstate USA, Inc), and PKCβII (0.15 ng/μl, Upstate USA, Inc.). The solution was pipetted into wells of a 384-well plate (10 μL per well), Corning 384-well, black, non-binding surface (NBS), microwell plates. […] ATP (10 μM) was added to initiate the kinase reaction. Fluorescence was read in real-time every 2 minutes for 2 hours, at ambient temperature, using, Molecular Devices (Sunnyvale, Calif.) Analyst GT, with excitation and emission set at 485 and 535 nm respectively.

T1 sequence (P28482 whole entry): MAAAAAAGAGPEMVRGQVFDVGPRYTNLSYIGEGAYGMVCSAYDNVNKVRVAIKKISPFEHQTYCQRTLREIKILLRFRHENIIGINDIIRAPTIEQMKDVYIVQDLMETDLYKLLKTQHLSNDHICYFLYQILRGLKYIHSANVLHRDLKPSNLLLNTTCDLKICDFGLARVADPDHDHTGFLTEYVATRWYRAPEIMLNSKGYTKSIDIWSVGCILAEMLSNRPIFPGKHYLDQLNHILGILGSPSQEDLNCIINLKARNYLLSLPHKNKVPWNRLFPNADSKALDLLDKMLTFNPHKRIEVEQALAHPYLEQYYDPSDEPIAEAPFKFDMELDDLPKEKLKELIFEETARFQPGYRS

| Compound | α-COOH pKa [2] | Monera et al. Hydrophobicity at pH 7 [1] | α-NH3+ pKa [2] | other results |
| --- | --- | --- | --- | --- |
| O=C(O)[C@@H]1CCCN1 [Proline (P), Proline] | 2.1 |  |  | Monera et al. Hydrophobicity ([1]; pH 2): −46 (pH 2) |
| NCCCC[C@H](N)C(=O)O [Lysine (K), Lysine] |  | −23 | 9.0 |  |
| N[C@@H](Cc1c[nH]c2ccccc12)C(=O)O [Tryptophan (W), Tryptophan] | 2.4 | 97 |  |  |
| CC[C@H](C)[C@H](N)C(=O)O [Isoleucine (I), Isoleucine] | 2.4 | 99 | 9.7 |  |
| C16OOOK(Dye2)EEIYGEF-amide ({C16-code O-code O-code O-K(Dye2)}-EEIYGEF-NH2; reading uncertain; also: printed as C16OOOK(Dye2)EEIYGEF-amide) [C16OOOK(Dye 2)EEIYGEF-amide, hydrophobic molecule: C16 carbon chain, O-spacers, lysine-linked 5-carboxy-2′,7′-dipyridyl-sulfonefluorescein, peptide EEIYGEF-amide] |  |  |  | increase in fluorescence over time on addition of enzyme (MAP kinase2/Erk2): greater than 4 fold; increase in fluorescence over time on addition of enzyme (PKCβII [3]): greater than 4 fold; increase in fluorescence over time on addition of enzyme (MAP kinase1/Erk1): greater than 4 fold |
| N[C@@H](CS)C(=O)O [Cysteine (C), Cysteine] |  | 49 |  | Side chain pKa [2]: about 8 |
| NC(=O)C[C@H](N)C(=O)O [Asparagine (N), Asparagine] | 2.0 | −28 | 8.8 |  |
| C[C@H](N)C(=O)O [Alanine (A), Alanine] | 2.4 | 41 |  |  |
| C17OOOK(tet)RQGSFRA-amide ({C17-code O-code O-code O-K(tet)}-RQGSFRA-NH2; reading uncertain; also: printed as C17OOOK(tet)RQGSFRA-amide) [hydrophobic molecule: C17 carbon chain, O-spacers, lysine-linked tet fluorescein dye, peptide RQGSFRA-amide] |  |  |  | micelle form seen in electron micrograph [4]: cylindrical or tubular micelles; diameter of cylindrical or tubular micelles ([4]; electron micrograph FIG. 1A): 20-60 nm; length of cylindrical or tubular micelles ([4]; electron micrograph FIG. 1A): 200-1000 nm |
| N[C@@H](CO)C(=O)O [Serine (S), Serine] |  | −5 | 9.2 | Side chain pKa [2]: ~13 |
| C[C@@H](O)[C@H](N)C(=O)O [Threonine (T), Threonine] | 2.6 |  | 10.4 | Side chain pKa [2]: ~13 |
| N=C(N)NCCC[C@H](N)C(=O)O [Arginine (R), Arginine] | 2.2 |  |  |  |
| N[C@@H](Cc1c[nH]cn1)C(=O)O [Histidine (H), Histidine] |  | 8 |  |  |
| C17OOOK(tet)RQGS(p)FRA-amide |  |  |  | micelle form seen in electron micrograph [4]: only form small spheres and small clusters of spheres |
| CC(C)[C@H](N)C(=O)O [Valine (V), Valine] |  | 76 |  |  |
| O=S(=O)(NCCNC/C=C/c1ccc(Br)cc1)c1cccc2cnccc12 [H98, H89] |  |  |  | effect of increasing concentrations of enzyme inhibitor on fluorescence (PKCβII [5]): decrease in fluorescence |
| N[C@@H](Cc1ccccc1)C(=O)O [Phenylalanine (F), Phenylalanine] |  | 100 |  |  |
| N[C@@H](Cc1ccc(O)cc1)C(=O)O [Tyrosine (Y), Tyrosine] |  | 63 |  |  |
| CSCC[C@H](N)C(=O)O [Methionine (M), Methionine] | 2.3 | 74 | 9.2 |  |
